Data published in patent publication US20150225739A1 (priority 2014, published 2015).
Where two headings read alike, the source gives them in different places.

Legend:
[1] = test system: hepatitis C virus (HCV) IRES; conditions: dose-dependent; cited from earlier work
[2] = test system: Encephalomyocarditis Virus (EMCV) IRES; conditions: dose-dependent; cited from earlier work
poliovirus IRES = conditions: dose-dependent; cited from earlier work
WSSV = assay: In vivo quinacrine assay and WSSV challenge experiment in shrimp; set-up: species or system Litopenaeus vannamei
Method: (§1) For the WSSV challenge experiment, groups of shrimp (14 shrimp per group) were injected either with WSSV (50 μl of 100× dilution of the virus stock) or with PBS as a negative control. These first injections were then immediately followed by a second injection of 50 μl of either QC (5 μg/g) or PBS. Pleopods were excised from 3 randomly selected shrimp from each group at 0, 1, 2, 6 and 9 days post-injection (dpi) and tested for WSSV infection as described below. A second replicate of this entire experiment was performed at the same time. No pleopods were collected from the shrimp in this second replicate. Instead, mortality was observed and recorded every 12 h.
A commercial WSSV diagnostic kit (IQ2000 WSSV Detection and Prevention System, GeneReach Biotechnology Corp.) was used to determine WSSV infection levels. Briefly, genomic DNA extracted from the shrimp pleopod samples was isolated using the DTAB/CTAB extraction procedure according to the manufacturer's instructions. Next, competitive nested PCR analysis was performed using the extracted DNA samples. The PCR products were analyzed by electrophoresis with a 2% agarose gel. WSSV infection levels were determined according to the pattern of bands indicated in the kit's instructions.

[3] = In vivo quinacrine dosage determination in shrimp (mortality); set-up: species or system Litopenaeus vannamei; conditions: injected 0.5, 2.5 or 5 μg/g body weight, 20 shrimp per group, 2 weeks
Method: To determine the optimal QC dosage for the challenge experiment, four groups of shrimp (20 shrimp per group) were injected with different doses ([…], 2.5 μg/g, or 5 μg/g body weight) of QC (10 mg/mL stock solution in PBS) or with PBS (negative control). The mortality of each group was observed and recorded every 12 h.
as §1

icp35 IRES [4] = conditions: Sf9 cells, 48 h, relative to untreated
cellular p53 IRES = conditions: cited from earlier work
icp35 IRES [5] = assay: IRES activity under tunicamycin-induced ER stress, dual luciferase assay in Sf9 cells; format: cell-based, White spot syndrome virus; conditions: tunicamycin 2.5 μg/ml added 24 h post-transfection, 15 h of treatment
Method: After 15 h of treatment, cells were harvested. One replicate of the harvested cells was subjected to a dual luciferase assay as described above. The other replicate was subjected to Western blotting to monitor the level of the phosphorylated proteins. For this assay, 2× sample buffer was added to the cells and the mixture was boiled for 10 minutes. An aliquot (15 μl) was separated on 15% SDS-PAGE and transferred onto the PVDF membrane as described above. The blots were then blocked with 5% BSA in TBST (0.01% of Tween 20 in TBS buffer) for 1 h at RT, and probed with the commercial primary antibodies Phospho-eIF2α (Ser51) (Cell Signaling) or EIF2S1 (Abeam). The antibodies were diluted 1:1,000 in 2.5% non-fat milk in TBST and applied for 16 h at 4° C. This step was followed by washing three times for 10 min at RT with TBST. The blots were then probed with anti-Rabbit or anti-Mouse IgG secondary antibody (Santa Cruz Biotechnology) diluted 1:10,000 in 2.5% BSA in TBST for 1 hr at RT, and washed three times for 10 min at RT with TBST. Western Lightning® Plus-ECL reagents were used for visualization as described above.

CCN(CC)CCCC(C)Nc1c2ccc(Cl)cc2nc2ccc(OC)cc12 (stereo not drawn) [QC, quinacrine dihydrochioride]
IRES activity [1]: inhibited | IRES activity [2]: inhibited | IRES activity (poliovirus IRES): inhibited | mortality rate after WSSV challenge (WSSV; QC 5 μg/g injected immediately after WSSV inoculum, vs WSSV+PBS): significantly reduced | shrimp still alive (WSSV; WSSV+QC group, QC 5 μg/g, 9 dpi): over 70% | WSSV infection level in surviving shrimp (IQ2000 nested competitive PCR) (WSSV; WSSV+QC sample collection group, 1, 2, 6 and 9 dpi): tested negative or had only a light infection | survival of unchallenged shrimp [3]: All but one of the shrimp (in the 0.5 μg/g group) survived | FL value (IRES-mediated firefly luciferase activity) (icp35 IRES [4]; QC 25 μM): significantly reduced | FL/RL ratio (icp35 IRES [4]; QC 25 μM): significantly reduced | FL value (IRES-mediated firefly luciferase activity) (icp35 IRES [4]; QC 30 μM): significantly reduced | FL/RL ratio (icp35 IRES [4]; QC 30 μM): significantly reduced | RL value (cap-dependent Renilla luciferase activity) (icp35 IRES [4]; […], QC 25 μM or 30 μM): no significant effect | sensitivity of IRES to QC (cellular p53 IRES): not sensitive

tunicamycin
cap-dependent translation (RL activity) (icp35 IRES [5]): inhibited | icp35 IRES-dependent translation (FL activity) (icp35 IRES [5]): inhibited
